Assay [1] has as its target AC1 (Homo sapiens, UniProt Q08828). The assay is described as follows: Adenylyl cyclase cAMP accumulation assay, HEK-ACA3/6 cells overexpressing human AC1. The following applies: Table 2; 3 μM A23187 + 0.5 mM IBMX, HTRF cAMP; read-out: AC1 IC50 (μM) ± SEM. Format: cell-based. Set-up: expressed in transfected cells; host or cells: HEK-ACA3/6 cells (so in the source) overexpressing human AC1. The protocol:
Cryopreserved HEK-ACA3/6 cells overexpressing human AC1, AC2, AC5, or AC8 were transferred to a 15 mL Falcon tube and gently resuspended in prewarmed Opti-MEM.50 The cells were centrifuged for 5 min at 150 g, the supernatant was discarded, and the cell pellet was resuspended in 10 mL for a second centrifugation step. Then, the cells were counted, plated in a white opaque 384-well plate, and incubated for 1 h in a 37° C. incubator supplemented with 5% CO2. The hit compounds' working solutions were prepared in prewarmed Opti-MEM, and successive serial dilutions were prepared using a Precision 2000 automated pipetting system. Dose*-response curves were generated for each hit compound using a threefold serial dilution starting at 30 μM concentration (at least 6-points per curve). Compounds were added to the assay plates and incubated for 30 min at room temperature. AC activity was selectively stimulated on each AC isoform with 3 μM A23187 (AC1 and AC8), 100 nM PMA (AC2), or a low concentration (1 μM) of the AC activator, forskolin (AC5). All stimulants of AC activity were added in combination with IBMX at a final concentration of 0.5 mM. After 1 h incubation with the stimulant at room temperature, cAMP accumulation was detected using the fluorescence-based Cisbio HTRF cAMP detection kit. […] Percent inhibition at the highest concentration was used to determine max % inhibition (Max AC8% Inhibition). […]
(In general: cAMP levels reflect the balance of adenylyl cyclase and phosphodiesterase activity.)

In assay [2] the target is AC8 (Homo sapiens, UniProt P40145). The assay can be described thus: Adenylyl cyclase cAMP accumulation assay, HEK-ACA3/6 cells overexpressing human AC8. Format: cell-based. Further details: expressed in transfected cells; host or cells: HEK-ACA3/6 cells (so in the source) overexpressing human AC8. The following applies: Table 2; for IC50: 3 μM A23187 + 0.5 mM IBMX, HTRF cAMP, read-out: AC8 IC50 (μM) ± SEM; for inhibition at up to 30 µM: percent inhibition at the highest concentration (dilution starting at 30 μM), read-out: Max AC8 % inhibition. The protocol:
Cryopreserved HEK-ACA3/6 cells overexpressing human AC1, AC2, AC5, or AC8 were transferred to a 15 mL Falcon tube and gently resuspended in prewarmed Opti-MEM.50 The cells were centrifuged for 5 min at 150 g, the supernatant was discarded, and the cell pellet was resuspended in 10 mL for a second centrifugation step. Then, the cells were counted, plated in a white opaque 384-well plate, and incubated for 1 h in a 37° C. incubator supplemented with 5% CO2. The hit compounds' working solutions were prepared in prewarmed Opti-MEM, and successive serial dilutions were prepared using a Precision 2000 automated pipetting system. Dose*-response curves were generated for each hit compound using a threefold serial dilution starting at 30 μM concentration (at least 6-points per curve). Compounds were added to the assay plates and incubated for 30 min at room temperature. AC activity was selectively stimulated on each AC isoform with 3 μM A23187 (AC1 and AC8), 100 nM PMA (AC2), or a low concentration (1 μM) of the AC activator, forskolin (AC5). All stimulants of AC activity were added in combination with IBMX at a final concentration of 0.5 mM. After 1 h incubation with the stimulant at room temperature, cAMP accumulation was detected using the fluorescence-based Cisbio HTRF cAMP detection kit. […] Percent inhibition at the highest concentration was used to determine max % inhibition (Max AC8% Inhibition).
The Max AC8 inhibition is a description of the maximum efficacy of molecules against AC8.

Chain of AC1 (Q08828 whole entry): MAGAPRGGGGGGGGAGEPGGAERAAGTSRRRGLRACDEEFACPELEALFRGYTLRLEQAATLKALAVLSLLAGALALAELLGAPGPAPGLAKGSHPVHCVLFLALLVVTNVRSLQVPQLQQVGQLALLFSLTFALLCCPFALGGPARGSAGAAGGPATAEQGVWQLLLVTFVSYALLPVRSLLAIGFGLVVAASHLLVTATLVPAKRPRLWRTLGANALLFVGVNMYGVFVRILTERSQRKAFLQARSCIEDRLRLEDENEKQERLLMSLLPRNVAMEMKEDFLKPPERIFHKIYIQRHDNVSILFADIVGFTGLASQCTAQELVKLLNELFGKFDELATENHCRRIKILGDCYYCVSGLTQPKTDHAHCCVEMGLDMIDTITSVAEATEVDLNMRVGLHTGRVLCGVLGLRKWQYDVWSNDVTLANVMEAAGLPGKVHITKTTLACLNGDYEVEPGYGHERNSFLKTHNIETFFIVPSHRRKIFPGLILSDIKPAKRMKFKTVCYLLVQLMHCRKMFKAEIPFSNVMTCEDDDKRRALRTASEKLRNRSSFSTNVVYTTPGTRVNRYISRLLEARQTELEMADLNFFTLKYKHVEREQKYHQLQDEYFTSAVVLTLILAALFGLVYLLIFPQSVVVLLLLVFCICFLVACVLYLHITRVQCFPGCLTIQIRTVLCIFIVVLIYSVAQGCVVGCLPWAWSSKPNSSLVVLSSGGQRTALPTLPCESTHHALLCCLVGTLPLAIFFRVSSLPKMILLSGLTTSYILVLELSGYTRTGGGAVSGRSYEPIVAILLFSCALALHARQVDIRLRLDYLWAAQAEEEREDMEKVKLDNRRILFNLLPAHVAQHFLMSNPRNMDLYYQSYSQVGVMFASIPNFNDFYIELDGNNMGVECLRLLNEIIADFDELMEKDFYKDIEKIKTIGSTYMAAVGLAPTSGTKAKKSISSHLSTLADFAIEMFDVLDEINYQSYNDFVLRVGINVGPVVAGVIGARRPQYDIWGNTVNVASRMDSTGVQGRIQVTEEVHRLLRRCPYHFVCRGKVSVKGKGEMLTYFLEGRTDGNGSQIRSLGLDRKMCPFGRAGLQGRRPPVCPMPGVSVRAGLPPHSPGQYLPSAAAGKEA
Chain of AC8 (P40145 whole entry): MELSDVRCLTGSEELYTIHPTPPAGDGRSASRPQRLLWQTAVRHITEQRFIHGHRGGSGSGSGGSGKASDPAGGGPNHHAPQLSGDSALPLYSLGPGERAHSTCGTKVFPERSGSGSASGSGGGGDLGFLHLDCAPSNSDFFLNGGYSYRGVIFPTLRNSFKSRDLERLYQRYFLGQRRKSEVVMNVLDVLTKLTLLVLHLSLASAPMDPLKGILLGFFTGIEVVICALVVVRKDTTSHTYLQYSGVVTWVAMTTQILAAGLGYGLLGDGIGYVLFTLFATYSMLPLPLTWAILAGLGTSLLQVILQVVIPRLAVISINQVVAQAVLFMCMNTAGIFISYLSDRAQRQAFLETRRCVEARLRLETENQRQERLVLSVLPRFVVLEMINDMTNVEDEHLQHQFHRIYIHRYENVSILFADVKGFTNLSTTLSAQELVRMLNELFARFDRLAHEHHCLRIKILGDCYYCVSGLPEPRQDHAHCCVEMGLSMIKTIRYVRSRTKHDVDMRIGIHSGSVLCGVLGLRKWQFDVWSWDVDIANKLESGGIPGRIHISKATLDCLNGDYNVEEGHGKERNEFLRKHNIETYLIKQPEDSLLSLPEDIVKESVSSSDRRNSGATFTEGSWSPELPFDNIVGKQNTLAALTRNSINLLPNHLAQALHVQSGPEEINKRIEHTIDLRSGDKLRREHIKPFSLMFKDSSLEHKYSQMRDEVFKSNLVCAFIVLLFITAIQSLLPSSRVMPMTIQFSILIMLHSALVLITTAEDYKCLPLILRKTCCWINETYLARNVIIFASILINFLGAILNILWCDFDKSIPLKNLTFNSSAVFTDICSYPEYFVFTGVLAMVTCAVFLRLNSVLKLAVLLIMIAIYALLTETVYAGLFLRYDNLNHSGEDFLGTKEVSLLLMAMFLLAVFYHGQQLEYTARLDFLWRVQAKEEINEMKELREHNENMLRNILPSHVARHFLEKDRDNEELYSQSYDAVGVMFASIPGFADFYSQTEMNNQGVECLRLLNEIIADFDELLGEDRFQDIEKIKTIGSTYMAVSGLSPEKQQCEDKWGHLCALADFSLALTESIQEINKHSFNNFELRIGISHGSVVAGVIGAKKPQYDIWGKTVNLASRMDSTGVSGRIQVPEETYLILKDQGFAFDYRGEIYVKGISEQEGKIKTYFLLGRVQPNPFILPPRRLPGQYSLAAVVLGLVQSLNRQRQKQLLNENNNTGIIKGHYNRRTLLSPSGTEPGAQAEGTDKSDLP

As to `Cc1cc(=O)[nH]c(-n2nc(C)cc2NCc2ccc(Cl)cc2)n1` [AC10111A], the results for the IC50 in assay [1] and in assay [2] were 0.36 ± 0.12 µM and 31.8 ± 19.3 µM, respectively. Moreover, the inhibition (usually the change of the read-out against control, counted positive when it falls) at up to 30 µM in assay [2] turned out to be 35%.

Turning to `CCc1cc(=O)[nH]c(-n2nc(C)cc2NCc2ccco2)n1` [AC10139A], the IC50 – broadly, the concentration needed to halve the response being measured – in assay [1] is 1.07 ± 0.07 µM; in assay [2], more than 60 µM. Moreover, in assay [2], the inhibition at up to 30 µM was 23%.

As for `Cc1cccc(CNc2cc(C)nn2-c2nc(C)cc(=O)[nH]2)c1` [AC10114A], in assay [1], the IC50 amounted to 0.63 ± 0.22 µM. Moreover, in assay [2], the IC50 is more than 60 µM and the inhibition at up to 30 µM was 33%.

As for `Cc1cccc(CNc2cc(C)nn2-c2nccc(=O)[nH]2)c1` [AC10116A], the IC50 turned out to be 2.63 ± 0.51 µM in assay [1] and 8.23 ± 4.05 µM in assay [2]. In assay [2], the inhibition at up to 30 µM stood at 83%.

As for `CCc1cc(=O)[nH]c(-n2nc(C)cc2NCc2ccc(C(=O)c3ccccc3)cc2)n1` [AC10144A], the values for the IC50 in assay [1] and in assay [2] were 0.26 ± 0.03 µM and 2.01 ± 0.09 µM, respectively. In addition, in assay [2], the inhibition at up to 30 µM was 84%.

Regarding `Cc1cc(NCc2ccc(Cl)cc2)n(-c2ccccc2)n1` [AC10113A], the half-inhibitory concentration (IC50) in assay [1] came out at 15.5 ± 8.63 µM. In addition, in assay [2], the IC50 is more than 60 µM and the inhibition at up to 30 µM worked out at 19%.

With `CCc1cc(=O)[nH]c(-n2nc(C)cc2NCc2cccs2)n1` [AC10140A], the IC50 in assay [1] worked out at 0.39 ± 0.02 µM. Also, in assay [2], the IC50 is more than 60 µM and the inhibition at up to 30 µM was found to be 4%.

Consider `CCc1cc(=O)[nH]c(-n2nc(-c3ccccc3)cc2NCc2ccc(OC)cc2)n1` [AC10112A], for which the half-maximal inhibitory concentration (IC50) in assay [1] worked out at 0.86 ± 0.07 µM. Besides, in assay [2], the IC50 was found to be 45.3 ± 14.1 µM and the inhibition at up to 30 µM is 37%.

As for `Cc1cccc(CNc2cc(C)nn2-c2nc3c(c(=O)[nH]2)CCC3)c1` [AC10115A], the IC50 in assay [1] was 0.75 ± 0.39 µM. Also, in assay [2], the half-maximal inhibitory concentration (IC50) amounted to 10.8 ± 4.61 µM and the inhibition at up to 30 µM turned out to be 82%.

Turning to `Cc1cc(NCc2ccc(Cl)cc2)n(-c2nc3c(c(=O)[nH]2)CCC3)n1` [AC10110A], in assay [1], the IC50 was 7.49 ± 2.9 µM. In assay [2], the 50% inhibitory concentration (IC50) was determined as 58.9 ± 36.1 µM and the inhibition at up to 30 µM is 48%.

Values taken from patent publication US20230250084A1, “PYRAZOLYL PYRIMIDINONE COMPOUNDS AND THE USES THEREOF” (Purdue Research Foundation, priority 2019, published 2023).
